# In PMC12472577, “Trimetazidine–Profen Hybrid Molecules: Synthesis, Chemical Characterization, and Biological Evaluation of Their Racemates” (Pharmaceuticals, 2025):
# Several values for one entry are separate records, joined by “and”; a condition that tells them apart may be missing. Identical values can stand only once. Like-named read-outs stand apart in the source and are kept apart here.
# Experiments:
# [1] = Acute rat toxicity prediction using GUSAR software
# Description: Given the potential toxicity concerns associated with both trimetazidine and profens, including rare gastrointestinal, hepatic, renal, and central nervous system effects, we evaluated the acute toxicity of the newly synthesized trimetazidine–profen hybrid molecules.
# GUSAR software was developed to generate QSAR/QSPR models using appropriate training datasets. It enables an in silico prediction of LD50 values in rats for four routes of administration: oral, intravenous, intraperitoneal, and subcutaneous.
# We employed the software to perform quantitative in silico predictions of the LD50 values for the synthesized trimetazidine–profen hybrids 3a–e.
# human albumin = target: T1, human albumin (Homo sapiens, UniProt P02768); test: Inhibition of albumin denaturation (IAD); assay type: biochemical
# T1 construct: purchased BB-NCIPD Ltd., Sofia, Bulgaria
# Procedure: The in vitro analysis of the anti-inflammatory activity was evaluated by measuring the inhibition of albumin denaturation (IAD). The analysis was carried out according to the method of Manolov et al. with minor modifications. The experiment was conducted using human albumin. A 1% albumin solution was prepared in distilled water at pH 7.4. Test samples and standards were initially dissolved in 1 mL of DMSO, then supplemented with 1% Tween 80 in PBS to achieve a final stock solution concentration of 1000 μg/mL. Subsequently, a series of working solutions at varying concentrations (20–500 μg/mL) in 1% Tween 80/PBS were prepared. The reaction mixture consisted of 2 mL of the test sample or standard at varying concentrations and 1 mL of 1% albumin. The mixture was incubated at 37 °C for 15 min, followed by heating at 70 °C for 15 min in a water bath. After cooling, the turbidity was measured at 660 nm using a spectrophotometer (CamSpec M508, Leeds, UK). Ibuprofen served as the standard. The experiment was conducted in triplicate. The percentage inhibition of albumin denaturation (IAD) was calculated against the control. The control sample consisted of albumin at the same concentration dissolved in distilled water.(3) %IAD=Ablank−Asample/Ablank×100
# [2] = Hydroxyl radical scavenging activity (HRSA), Fenton reaction / 1,10-phenanthroline; assay type: biochemical; conditions: IC50 ± SD, triplicate; 60 min at 37 °C, pH 7.40
# Procedure: The hydroxyl radical-scavenging activity of the samples was measured according to the method of Luo et al.. In this system, hydroxyl radicals were generated by the Fenton reaction. Hydroxyl radicals could oxidize Fe^2+ into Fe^3+, and only Fe^2+ could be combined with 1,10-phenanthroline to form a red compound (1,10-phenanthroline-Fe^2+) with a maximum absorbance at 536 nm. The concentration of the hydroxyl radical was reflected by the degree of decolorization of the reaction solution. In test tubes 1 mL of 1,10-phenanthroline solution (0.75 mM), 2.0 mL of phosphate buffer saline (0.2 M, pH 7.40), and 1 mL of the samples/standard were added and mixed homogeneously. A total of 1.0 mL of the FeSO4 solution (0.75 mM) was then pipetted into the mixture. The reaction was initiated by adding 1.0 mL H2O2 (0.03% v/v). After incubation at 37°C for 60 min in a water bath, the absorbance of the reaction mixture was measured at 536 nm against reagent blank. The reaction mixture without any antioxidant was used as the negative control, and without H2O2 was used as the blank. The hydroxyl radical scavenging activity (HRSA) was calculated by the following formula:(2) I,%(HRSA)=AS−An/Ab−An×100 where As, An, and Ab were the absorbance values determined at 536 nm of the sample, the negative control, and the blank after reaction, respectively.
# [3] = Hydrogen peroxide scavenging activity (HPSA); assay type: biochemical; conditions: IC50 ± SD, triplicate; 10 min at 37 °C, pH 7.4
# Procedure: The Manolov et al. approach was used to evaluate a capacity to scavenge hydrogen peroxide. A 43 mM solution of H2O2 was prepared in a potassium phosphate buffer solution (0.2 M, pH 7.4). The analysis of the samples was carried out as follows: in test tubes, 0.6 mL H2O2 (43 mM), 1 mL sample/standard with different concentrations (20–1000 µg/mL), and 2.4 mL potassium phosphate buffer solution were mixed. The mixture was stirred and incubated in the dark for 10 min at 37 °C. Absorbance was measured at 230 nm with a spectrophotometer (CamSpec M508, Leeds, UK) against a blank solution containing the phosphate buffer and H2O2 without the sample. […] The percentage HPSA of the samples was evaluated by comparing with a blank sample, and was calculated using the following formula:(1) I,%(HPSA)=Ablank−(ATS−ACS)/Ablank×100 where Ablank is the absorbance of the blank sample, ACS is the absorbance of the control sample, and ATS is the absorbance of the test sample.
# [4] = Lipophilicity as RM values by reversed-phase thin-layer chromatography (RP-TLC); assay type: physicochemical
# Procedure: In this study, the lipophilicity of the synthesized trimetazidine–profen derivatives was evaluated using a practical and widely applied technique—reversed-phase thin-layer chromatography (RP-TLC)—following the methodology outlined by Pontiki and Hadjipavlou-Litina.
# The lipophilicity of the trimetazidine–profen derivatives was determined following the procedure described by Pontiki and Hadjipavlou-Litina.
# [5] = composite across IP, IV, oral, SC GUSAR predictions, lower = more toxic, read-out: geometric mean of the four LD50 values
# T1 sequence (P02768 25-609): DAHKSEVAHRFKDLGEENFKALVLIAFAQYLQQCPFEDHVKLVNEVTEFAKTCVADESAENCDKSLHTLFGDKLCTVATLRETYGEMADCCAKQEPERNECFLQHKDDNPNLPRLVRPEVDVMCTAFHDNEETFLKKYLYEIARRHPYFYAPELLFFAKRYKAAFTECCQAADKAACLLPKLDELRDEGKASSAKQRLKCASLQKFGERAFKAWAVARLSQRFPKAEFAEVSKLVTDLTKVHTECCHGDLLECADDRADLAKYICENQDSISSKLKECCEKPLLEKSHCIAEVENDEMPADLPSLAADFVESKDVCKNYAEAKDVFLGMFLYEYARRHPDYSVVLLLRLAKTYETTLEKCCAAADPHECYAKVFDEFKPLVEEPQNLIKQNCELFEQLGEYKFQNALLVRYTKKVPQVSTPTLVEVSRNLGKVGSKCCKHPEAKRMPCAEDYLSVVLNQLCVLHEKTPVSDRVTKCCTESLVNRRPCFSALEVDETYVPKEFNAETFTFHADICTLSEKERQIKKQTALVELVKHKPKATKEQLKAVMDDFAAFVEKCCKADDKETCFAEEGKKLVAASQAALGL
SMILES,"LD50 [1, 5] [mg/kg]",IC50 (human albumin) [µM],HRSA IC50 [2],HPSA IC50 [3] [µg/mL],RM ± SD [4],LD50 [1] [mg/kg]
"COc1ccc(CN2CCN(C(=O)C(C)c3ccc(CC(C)C)cc3)CC2)c(OC)c1OC (stereo not drawn) [3a, 2-(4-isobutylphenyl)-1-(4-(2,3,4-trimethoxybenzyl)piperazin-1-yl)propan-1-one]",~212,244,77.98 µg/mL,97.55 ± 1.21,1.68 ± 0.021 and 1.68,
"COc1ccc(CN2CCN(C(=O)C(C)c3cccc(C(=O)c4ccccc4)c3)CC2)c(OC)c1OC (stereo not drawn) [3b, 2-(3-benzoylphenyl)-1-(4-(2,3,4-trimethoxybenzyl)piperazin-1-yl)propan-1-one]",~398,234,74.72 ± 0.41 µg/mL and 74.6 to 74.7 µg/mL,93.56 ± 1.29,1.55 ± 0.015 and 1.55,
"COc1ccc2cc(C(C)C(=O)N3CCN(Cc4ccc(OC)c(OC)c4OC)CC3)ccc2c1 (stereo not drawn) [3c, 2-(6-methoxynaphthalen-2-yl)-1-(4-(2,3,4-trimethoxybenzyl)piperazin-1-yl)propan-1-one]",~391,227,71.13 µg/mL,93.07 ± 0.43,1.61 ± 0.020 and 1.61,
"COc1ccc(CN2CCN(C(=O)C(C)c3ccc(-c4ccccc4)c(F)c3)CC2)c(OC)c1OC (stereo not drawn) [3d, 2-(2-fluoro-[1,1’-biphenyl]-4-yl)-1-(4-(2,3,4-trimethoxybenzyl)piperazin-1-yl)propan-1-one]",~287,235,74.59 ± 1.02 µg/mL and 74.6 to 74.7 µg/mL,135.25 ± 13.19,1.45 ± 0.008 and 1.45,
"COc1ccc(CN2CCN(C(=O)C(C)c3ccc4c(c3)[nH]c3ccc(Cl)cc34)CC2)c(OC)c1OC (stereo not drawn) [3e, 2-(6-chloro-9H-carbazol-2-yl)-1-(4-(2,3,4-trimethoxybenzyl)piperazin-1-yl)propan-1-one]",~369,225,92.56 µg/mL,99.75 ± 0.75,1.55 ± 0.016 and 1.55,
"CC(C)Cc1ccc(C(C)C(=O)O)cc1 (stereo not drawn) [Ibuprofen, reference compound]",,,,,1.11 ± 0.01,
"COc1ccc(CN2CCNCC2)c(OC)c1OC [compound 1, 1-[(2,3,4-trimethoxyphenyl)methyl]piperazine, reference compound]",,,,,,~246
